The values that follow come from publication PMC10983001, “Development of Cytotoxic GW7604-Zeise’s Salt Conjugates as Multitarget Compounds with Selectivity for Estrogen Receptor- Positive Tumor Cells” (Journal of Medicinal Chemistry, 2024).

One assay addresses T1, human recombinant COX-2 (Homo sapiens, UniProt P35354).
T1 construct: purchased Cayman Chemicals
T1 sequence (P35354 18-604): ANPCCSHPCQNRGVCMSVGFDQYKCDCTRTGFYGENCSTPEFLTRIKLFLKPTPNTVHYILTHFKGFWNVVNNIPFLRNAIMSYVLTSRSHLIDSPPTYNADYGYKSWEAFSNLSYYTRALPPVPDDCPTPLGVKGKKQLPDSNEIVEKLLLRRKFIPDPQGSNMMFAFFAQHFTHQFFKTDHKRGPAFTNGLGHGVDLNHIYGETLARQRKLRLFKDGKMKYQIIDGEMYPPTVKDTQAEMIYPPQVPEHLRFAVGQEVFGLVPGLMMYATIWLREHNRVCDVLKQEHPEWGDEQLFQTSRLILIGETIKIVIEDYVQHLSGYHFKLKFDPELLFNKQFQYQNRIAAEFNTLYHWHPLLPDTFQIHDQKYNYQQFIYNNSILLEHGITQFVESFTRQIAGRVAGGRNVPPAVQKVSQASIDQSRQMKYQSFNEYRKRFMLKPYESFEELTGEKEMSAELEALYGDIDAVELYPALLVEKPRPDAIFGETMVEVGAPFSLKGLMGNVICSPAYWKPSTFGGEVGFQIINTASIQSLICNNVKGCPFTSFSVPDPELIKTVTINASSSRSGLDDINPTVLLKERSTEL
The format is biochemical. The note with it: incubation 10 min. On the procedure: (§1) COX-1/2 inhibition was evaluated in an established assay on isolated isoenzymes. After incubation with the drugs (concentration: 20 μM) for 10 min, the remaining COX activity was measured by an enzyme-linked immunosorbent assay (ELISA).
(§2) The incubation time of the compounds with the respective isoenzymes was exactly 10 min. The results are presented as the mean ± SEM of three independent experiments, with two replicates of each experiment. […] Graphs were drawn using GraphPad Prism 8.0.

A further assay deals with T2, human recombinant COX-1 (Homo sapiens, UniProt P23219).
T2 construct: purchased Cayman Chemicals
In kind it is biochemical. The settings on record: incubation 10 min. On the procedure: as §1, §2

The target in assay [1] is T3, ERβ ligand-binding domain (Homo sapiens, UniProt Q92731).
T3 construct: purchased Invitrogen
Nature of the assay: TR-FRET ligand binding assay, isolated LBD of ERβ. On the procedure:
A modified LanthaScreen TR-FRET alpha/beta assay was performed, according to the manufacturer’s protocol (Invitrogen, Carlsbad, […]), to determine the binding affinity to the isolated LBD. […] Measurements were carried out on a multimode plate reader, Tecan Spark (Tecan, Männedorf, Switzerland). Calculations and visualization were performed with GraphPad Prism 8.0 (GraphPad Software, San Diego, CA, USA).

T3 sequence (Q92731 264-498 limits assumed): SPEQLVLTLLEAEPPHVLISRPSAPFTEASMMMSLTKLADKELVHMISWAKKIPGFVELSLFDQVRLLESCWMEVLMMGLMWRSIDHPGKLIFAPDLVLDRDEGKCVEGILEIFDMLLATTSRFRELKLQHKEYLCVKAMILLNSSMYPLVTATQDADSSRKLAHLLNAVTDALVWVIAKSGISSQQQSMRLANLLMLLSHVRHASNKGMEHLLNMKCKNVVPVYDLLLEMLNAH
T2 sequence (P23219 24-599): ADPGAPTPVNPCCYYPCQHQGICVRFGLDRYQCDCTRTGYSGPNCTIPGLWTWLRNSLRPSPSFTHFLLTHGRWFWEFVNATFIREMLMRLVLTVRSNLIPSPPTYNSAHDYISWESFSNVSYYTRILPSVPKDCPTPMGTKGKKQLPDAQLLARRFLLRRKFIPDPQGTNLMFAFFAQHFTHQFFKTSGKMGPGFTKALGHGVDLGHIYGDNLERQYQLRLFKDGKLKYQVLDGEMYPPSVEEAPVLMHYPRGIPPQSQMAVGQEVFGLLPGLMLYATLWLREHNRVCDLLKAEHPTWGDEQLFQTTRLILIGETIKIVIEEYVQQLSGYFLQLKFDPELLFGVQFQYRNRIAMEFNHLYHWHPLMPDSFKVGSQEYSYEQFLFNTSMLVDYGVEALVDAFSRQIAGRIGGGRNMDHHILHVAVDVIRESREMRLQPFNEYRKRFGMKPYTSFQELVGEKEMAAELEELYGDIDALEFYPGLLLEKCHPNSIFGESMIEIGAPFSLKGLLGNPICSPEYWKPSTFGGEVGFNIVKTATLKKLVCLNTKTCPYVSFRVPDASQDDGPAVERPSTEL

In general, IC50 refers to the concentration at which inhibition is half-maximal. As for `CCC(=C(c1ccc(O)cc1)c1ccc(C=CC(=O)OCCC[CH]2[CH2][Pt-]2([Cl])([Cl])[Cl])cc1)c1ccccc1.[K+]` (mixture of isomers) [GW7604-Pent-PtCl3, Potassium trichlorido[η^2-(pent-4-en-1-yl (E)-3-(4-((E/Z)-1-(4-hydroxyphenyl)-2-phenylbut-1-en-1-yl)phenyl)acrylate)]platinate(II)], the IC50 came to 1.82 µM on human recombinant COX-2 (0.1–20 μM); 1.7 µM on human recombinant COX-1 (0.1–20 μM); 0.00399 µM in assay [1] (read-out: IC50 (ERβ), displacement from the LBS). In addition, the “concentration at which maximum activity is reached, COX-2” value at human recombinant COX-2 is 10 µM. Besides, the “concentration at which maximum activity is reached, COX-1” value at human recombinant COX-1 amounted to 10 µM. Moreover, the “RBA (ERβ)” value in assay [1] (RBA(E2) = 100%) amounted to 6.02%.
